#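 Assay format: 96-well plates, 48-hour exposure. The concentration for 50% growth inhibition is given as GI50.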 Calls of active or inactive are those of the source. Rule as the data show it: active = GI50 up to about 1.1 µM and inactive = higher.
# How the values were obtained:
# Assay in all cases: NCI-60 cell line screen, 48 h
# [1] = system: BT-549
# [2] = system: Hs-578T
# [3] = system: A498
# [4] = system: COLO 205
# [5] = system: DU-145
# [6] = system: CCRF-CEM
# [7] = system: LOX IMVI
# [8] = system: CAKI-1
# [9] = system: SR
# [10] = system: MDA-MB-435
# [11] = system: IGROV-1
# [12] = system: SNB-75
# [13] = system: MDA-N
# [14] = system: HOP-62
# [15] = system: EKVX
# [16] = system: MCF7
# [17] = system: OVCAR-5
# [18] = system: RPMI-8226
# [19] = system: SF-295
# [20] = system: SF-539
Structure (SMILES),GI50 [1],GI50 [2],GI50 [3],GI50 [4],GI50 [5],GI50 [6],GI50 [7],GI50 [8],GI50 [9],GI50 [10],GI50 [11],GI50 [12],GI50 [13],GI50 [14],GI50 [15],GI50 [16],GI50 [17],GI50 [18],GI50 [19],GI50 [20]
Cc1ccc2c(c1)-c1nc(N)c(C#N)c(-c3ccc(Cl)cc3)c1CCS2(=O)=O,49 µM (inactive),43 µM (inactive),24.6 µM (inactive),24.7 µM (inactive),53.8 µM (inactive),20.7 µM (inactive),35.8 µM (inactive),38.5 µM (inactive),24.5 µM (inactive),31.3 µM (inactive),43.1 µM (inactive),49 µM (inactive),39.3 µM (inactive),–,–,–,–,–,–,–
CCOC(=O)C(NCc1cccc(C(F)(F)F)c1)(NC(=O)c1ccccc1)C(F)(F)F (stereo unspecified),20.5 µM (inactive),47.1 µM (inactive),–,16.4 µM (inactive),46.5 µM (inactive),> 100 µM (inactive),19.9 µM (inactive),14.4 µM (inactive),> 100 µM (inactive),24.3 µM (inactive),23.7 µM (inactive),27.4 µM (inactive),34 µM (inactive),37.9 µM (inactive),24.2 µM (inactive),43.3 µM (inactive),71.1 µM (inactive),9.1 µM (inactive),44.1 µM (inactive),24.2 µM (inactive)
C#C[C@]1(O)CC[C@H]2[C@@H]3CCC4=C/C(=N/CCOC(=O)c5cccc6cc7ccccc7nc56)CC[C@@H]4[C@H]3CC[C@@]21C,24.2 µM (inactive),14.3 µM (inactive),41 µM (inactive),90.6 µM (inactive),21 µM (inactive),> 100 µM (inactive),12.3 µM (inactive),42.4 µM (inactive),–,27.3 µM (inactive),13.8 µM (inactive),–,37.6 µM (inactive),35.2 µM (inactive),34.8 µM (inactive),17.3 µM (inactive),40.5 µM (inactive),–,22.3 µM (inactive),–
O=C(N/N=C(COc1ccccc1)\N=C\c1cccnc1)c1ccncc1,> 100 µM (inactive),> 100 µM (inactive),> 100 µM (inactive),> 100 µM (inactive),> 100 µM (inactive),> 100 µM (inactive),> 100 µM (inactive),> 100 µM (inactive),–,> 100 µM (inactive),> 100 µM (inactive),36.8 µM (inactive),> 100 µM (inactive),59.6 µM (inactive),> 100 µM (inactive),> 100 µM (inactive),> 100 µM (inactive),> 100 µM (inactive),> 100 µM (inactive),> 100 µM (inactive)
Cn1c2ccccc2c2c3c(c4c5ccccc5n(C)c4c21)C(=O)NC3=O,> 42.4 µM (inactive),24.8 µM (inactive),–,> 72.6 µM (inactive),> 100 µM (inactive),> 100 µM (inactive),> 34.8 µM (inactive),0.0256 µM (active),< 0.01 µM (active),> 42.7 µM (inactive),5.71 µM (inactive),29 µM (inactive),–,12.2 µM (inactive),10.9 µM (inactive),37.8 µM (inactive),72.8 µM (inactive),> 51.9 µM (inactive),20.4 µM (inactive),10.2 µM (inactive)
NC1=CN(Cc2ccccc2)C2=N/C(=C\c3ccco3)C(=O)N12,> 100 µM (inactive),> 100 µM (inactive),> 100 µM (inactive),> 100 µM (inactive),> 100 µM (inactive),> 100 µM (inactive),> 100 µM (inactive),> 100 µM (inactive),–,> 100 µM (inactive),> 100 µM (inactive),> 100 µM (inactive),> 100 µM (inactive),> 100 µM (inactive),> 100 µM (inactive),> 100 µM (inactive),> 100 µM (inactive),–,> 100 µM (inactive),> 100 µM (inactive)
Cc1cc(O)c(C(c2ccncc2)c2c(O)cc(C)[nH]c2=O)c(=O)[nH]1,> 100 µM (inactive),> 100 µM (inactive),–,> 100 µM (inactive),> 100 µM (inactive),> 100 µM (inactive),> 100 µM (inactive),5.12 µM (inactive),> 100 µM (inactive),> 100 µM (inactive),> 100 µM (inactive),–,> 100 µM (inactive),> 100 µM (inactive),> 100 µM (inactive),> 100 µM (inactive),> 100 µM (inactive),> 100 µM (inactive),> 100 µM (inactive),–
Cc1cn(S(=O)(=O)c2ccccc2)c2c(OCc3ccccc3)cc([N+](=O)[O-])cc12,> 100 µM (inactive),26 µM (inactive),30.6 µM (inactive),> 100 µM (inactive),> 100 µM (inactive),> 100 µM (inactive),> 100 µM (inactive),> 100 µM (inactive),< 0.01 µM (active),3.92 µM (inactive),71 µM (inactive),25.3 µM (inactive),–,> 10 µM (inactive),35.7 µM (inactive),32.4 µM (inactive),> 100 µM (inactive),> 100 µM (inactive),27.9 µM (inactive),> 100 µM (inactive)
CCOC(=O)c1c(-c2ccccc2)oc(=O)c(Cc2cccc3cccnc23)c1-c1ccccc1,> 10 µM (inactive),> 10 µM (inactive),> 10 µM (inactive),> 10 µM (inactive),> 10 µM (inactive),> 10 µM (inactive),> 10 µM (inactive),> 10 µM (inactive),> 10 µM (inactive),> 10 µM (inactive),> 10 µM (inactive),> 10 µM (inactive),–,> 10 µM (inactive),> 10 µM (inactive),> 10 µM (inactive),> 10 µM (inactive),> 10 µM (inactive),> 10 µM (inactive),> 10 µM (inactive)
CC(=O)OCc1cc2ccccc2nc1C(Br)(Br)Br,10.4 µM (inactive),27 µM (inactive),21.2 µM (inactive),19.6 µM (inactive),4.59 µM (inactive),10.9 µM (inactive),11.1 µM (inactive),15.7 µM (inactive),1.46 µM (inactive),13.3 µM (inactive),12 µM (inactive),14.6 µM (inactive),–,26.1 µM (inactive),19.1 µM (inactive),14.7 µM (inactive),15.4 µM (inactive),–,16.4 µM (inactive),21.1 µM (inactive)
Cc1ccc(-c2cc(-c3ccc(Cl)cc3)nc(/N=C3\C(=O)N(CN(C)C)c4ccccc43)n2)cc1,78.5 µM (inactive),54.8 µM (inactive),> 100 µM (inactive),77.8 µM (inactive),31.7 µM (inactive),14.9 µM (inactive),24.2 µM (inactive),87.9 µM (inactive),–,17.1 µM (inactive),53.5 µM (inactive),57.8 µM (inactive),19.4 µM (inactive),81.5 µM (inactive),> 100 µM (inactive),37.3 µM (inactive),> 100 µM (inactive),–,> 100 µM (inactive),> 100 µM (inactive)
C[N+]1(c2ccccc2)C=C(c2ccccc2)SC1=S (stereo unspecified),> 100 µM (inactive),66.1 µM (inactive),6.12 µM (inactive),23.1 µM (inactive),3.9 µM (inactive),–,> 100 µM (inactive),> 100 µM (inactive),> 100 µM (inactive),> 100 µM (inactive),> 100 µM (inactive),–,–,> 100 µM (inactive),18.1 µM (inactive),41.7 µM (inactive),> 100 µM (inactive),21 µM (inactive),> 100 µM (inactive),> 100 µM (inactive)
COC(=O)[C@@H]1COC(=O)N1,> 100 µM (inactive),> 100 µM (inactive),> 100 µM (inactive),> 100 µM (inactive),> 100 µM (inactive),> 100 µM (inactive),> 100 µM (inactive),> 100 µM (inactive),–,> 100 µM (inactive),> 100 µM (inactive),> 100 µM (inactive),> 100 µM (inactive),> 100 µM (inactive),> 100 µM (inactive),> 100 µM (inactive),> 100 µM (inactive),–,> 100 µM (inactive),> 100 µM (inactive)
CC1CNC(c2ccc(CN3CCC(CCCC4CCN(Cc5ccc(C6=NC(C)CN6)cc5)CC4)CC3)cc2)=N1 (stereo unspecified),> 100 µM (inactive),> 100 µM (inactive),> 100 µM (inactive),17.6 µM (inactive),45.8 µM (inactive),19.5 µM (inactive),82.4 µM (inactive),> 100 µM (inactive),–,17.2 µM (inactive),> 100 µM (inactive),23.4 µM (inactive),17.5 µM (inactive),32.2 µM (inactive),32.2 µM (inactive),19.8 µM (inactive),25.3 µM (inactive),–,> 100 µM (inactive),29.6 µM (inactive)
CCOC(=O)c1cc2c(=Cc3ccc(N(C)C)cc3)c3ccccc3n2[n+]1C,0.577 µM (active),–,10.4 µM (inactive),0.309 µM (active),1.38 µM (inactive),–,1.47 µM (inactive),1.64 µM (inactive),–,–,–,–,1.23 µM (inactive),< 0.01 µM (active),4.97 µM (inactive),2.34 µM (inactive),5.98 µM (inactive),0.301 µM (active),3.72 µM (inactive),0.577 µM (active)

# Source: ChEMBL document CHEMBL1201862, “PubChem BioAssay data set” (2004)
